Target: angiotensin-converting enzyme 2 (ACE2) (Homo sapiens, UniProt Q9BYF1)
Test: SPR (Biacore T200, ACE2 coupled to CM5 chip, steady-state affinity fit)
Assay type: binding

angiotensin-converting enzyme 2 (ACE2), sequence (Q9BYF1 18-805): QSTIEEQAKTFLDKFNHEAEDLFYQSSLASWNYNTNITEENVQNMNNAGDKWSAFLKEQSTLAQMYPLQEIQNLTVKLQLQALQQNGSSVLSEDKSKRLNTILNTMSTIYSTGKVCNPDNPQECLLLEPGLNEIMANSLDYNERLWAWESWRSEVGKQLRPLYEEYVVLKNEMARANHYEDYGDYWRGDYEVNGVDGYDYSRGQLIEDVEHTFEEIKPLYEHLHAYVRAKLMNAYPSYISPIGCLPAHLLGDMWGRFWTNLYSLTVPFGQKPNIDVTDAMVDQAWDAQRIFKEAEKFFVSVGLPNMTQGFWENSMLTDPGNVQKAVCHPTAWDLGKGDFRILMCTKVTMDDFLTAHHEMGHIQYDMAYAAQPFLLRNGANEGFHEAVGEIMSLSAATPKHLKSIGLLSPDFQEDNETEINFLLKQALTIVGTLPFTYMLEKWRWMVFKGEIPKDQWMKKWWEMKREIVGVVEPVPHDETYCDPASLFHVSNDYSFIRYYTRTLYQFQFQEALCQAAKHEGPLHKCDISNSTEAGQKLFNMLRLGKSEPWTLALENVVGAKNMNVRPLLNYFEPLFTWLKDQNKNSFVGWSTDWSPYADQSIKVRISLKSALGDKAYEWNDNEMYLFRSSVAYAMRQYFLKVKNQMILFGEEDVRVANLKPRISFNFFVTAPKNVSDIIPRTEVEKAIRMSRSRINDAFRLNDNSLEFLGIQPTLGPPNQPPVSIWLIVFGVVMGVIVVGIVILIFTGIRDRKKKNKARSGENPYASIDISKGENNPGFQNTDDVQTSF

Q: With N[C@@H](CC(=O)N1CCn2c(nnc2C(F)(F)F)C1)Cc1cc(F)c(F)cc1F [sitagliptin] as the molecule, how does the Kd read?
A: 35.1 nM

From article PMC9868454, “Exploring novel targets of sitagliptin for type 2 diabetes mellitus: Network pharmacology, molecular docking, molecular dynamics simulation, and SPR approaches” (Frontiers in Endocrinology, 2023)
